Our source for the inhibition values is ChEMBL document CHEMBL3879897, “1,4-dithiin and 1,4-dithiepin-1,1,4,4, tetroxide derivatives useful as antagonists of the human galanin receptor” (2002).

Format in all cases: subcellular
The target of assay [1] is T1, Galanin receptor type 1 (Rattus norvegicus) (UniProt Q62805).
T1 sequence (whole entry): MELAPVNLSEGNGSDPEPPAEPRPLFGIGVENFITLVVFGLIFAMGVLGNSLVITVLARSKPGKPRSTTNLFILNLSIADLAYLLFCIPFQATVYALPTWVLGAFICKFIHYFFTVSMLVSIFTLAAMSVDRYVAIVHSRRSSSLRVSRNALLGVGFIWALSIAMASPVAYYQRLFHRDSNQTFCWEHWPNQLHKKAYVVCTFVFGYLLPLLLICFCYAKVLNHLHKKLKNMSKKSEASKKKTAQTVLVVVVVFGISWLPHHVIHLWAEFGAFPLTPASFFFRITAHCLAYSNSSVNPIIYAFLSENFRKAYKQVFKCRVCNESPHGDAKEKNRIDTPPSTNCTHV
The assay is described as follows: Antagonist activity at galanin -1 receptor in rat brain synaptosomes assessed as galanin-mediated suppression of basal [3H]-acetylcholine secretion at 10 uM measured 10 mins post 30 sces superfusing with K+-Krebs-ringer solution by liquid scintillation spectrometric method (reference value: […]%).

Assay [2] deals with T1, Galanin receptor type 1 (Rattus norvegicus). The assay is described as follows: Antagonist activity at galanin -1 receptor in rat brain synaptosomes assessed as galanin-mediated suppression of basal [3H]-acetylcholine secretion at 1 uM measured 10 mins post 30 sces superfusing with K+-Krebs-ringer solution by liquid scintillation spectrometric method (reference value: […]%).

The target is the same in assay [3]. The assay is described as follows: Antagonist activity at galanin -1 receptor in rat brain synaptosomes assessed as galanin-mediated suppression of K+-Krebs-ringer solution-induced [3H]-acetylcholine secretion at 10 uM measured 10 mins post 30 sces superfusing with K+-Krebs-ringer solution by liquid scintillation spectrometric method (reference value: […]%).
Assay [4] has the same target. The assay is described as follows: Antagonist activity at galanin -1 receptor in rat brain synaptosomes assessed as galanin-mediated suppression of K+-Krebs-ringer solution-induced [3H]-acetylcholine secretion at 1 uM measured 10 mins post 30 sces superfusing with K+-Krebs-ringer solution by liquid scintillation spectrometric method (reference value: […]%).

Turning to `O=S1(=O)C=C(c2ccc(I)cc2)S(=O)(=O)CCC1`, the inhibition in assay [1] was 37%; in assay [2], 39.2%; in assay [3], 22.3%; in assay [4] it was 35.2%.
Take `O=S1(=O)C=C(c2cccc(F)c2)S(=O)(=O)CCC1`: the inhibition in assay [1] was 37%; in assay [2], 38.9%; in assay [4] it was 23.9%.
